In ChEMBL document CHEMBL4428052, “Substrate-Guided Design of Selective FXIIa Inhibitors Based on the Plant-Derived Momordica cochinchinensis Trypsin Inhibitor-II (MCoTI-II) Scaffold” (J Med Chem, 2016):
Peptide text beside a SMILES is read from it.

Legend:
Coagulation factor XII = target: T1, Coagulation factor XII (Homo sapiens, UniProt P00748); test: Inhibition of factor 12a (unknown origin) using Ac-QRFRpNA as substrate incubated for 30 mins measured for 7 mins by morrison plot analysis
T1 sequence (P00748 whole entry): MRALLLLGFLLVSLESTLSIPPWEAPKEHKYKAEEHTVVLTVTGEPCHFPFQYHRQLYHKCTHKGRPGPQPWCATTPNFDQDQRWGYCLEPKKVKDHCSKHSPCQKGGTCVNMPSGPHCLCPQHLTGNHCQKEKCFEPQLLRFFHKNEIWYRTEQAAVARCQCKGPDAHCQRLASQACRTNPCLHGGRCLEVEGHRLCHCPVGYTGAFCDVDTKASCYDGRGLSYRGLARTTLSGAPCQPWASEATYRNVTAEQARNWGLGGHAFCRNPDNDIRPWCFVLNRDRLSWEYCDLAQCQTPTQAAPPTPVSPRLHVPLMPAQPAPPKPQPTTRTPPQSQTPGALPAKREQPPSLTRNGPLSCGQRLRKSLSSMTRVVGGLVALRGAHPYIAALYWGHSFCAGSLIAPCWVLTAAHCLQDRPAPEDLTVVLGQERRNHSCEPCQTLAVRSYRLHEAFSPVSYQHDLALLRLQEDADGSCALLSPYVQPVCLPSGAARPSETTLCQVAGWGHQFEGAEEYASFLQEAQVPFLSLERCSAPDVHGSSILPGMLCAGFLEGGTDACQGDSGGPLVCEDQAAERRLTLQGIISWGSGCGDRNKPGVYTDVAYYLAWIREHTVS

Coagulation factor IX = Coagulation factor IX (Homo sapiens, UniProt P00740); test: Inhibition of factor 9a (unknown origin) using Ac-QGRpNA as substrate incubated for 30 mins measured for 7 mins by morrison plot analysis
Coagulation factor XI = Coagulation factor XI (Homo sapiens, UniProt P03951); test: Inhibition of factor 11a (unknown origin) using Bz-FVRpNA as substrate incubated for 30 mins measured for 7 mins by morrison plot analysis
Plasminogen = Plasminogen (Homo sapiens, UniProt P00747); test: Inhibition of plasmin (unknown origin) using Ac-RM(O2)YRpNA as substrate incubated for 30 mins measured for 7 mins by morrison plot analysis
Trypsin = Trypsin (Homo sapiens, UniProt P07477+P07478+P35030); test: Inhibition of trypsin (unknown origin) using Bz-FVRpNA as substrate incubated for 30 mins measured for 7 mins by morrison plot analysis; assay type: protein assay
Plasma kallikrein = Plasma kallikrein (Homo sapiens, UniProt P03952); test: Inhibition of human plasma kallikrein using Ac-RM(O2)YRpNA as substrate incubated for 30 mins measured for 7 mins by morrison plot analysis
[1] = target: Tissue-type plasminogen activator (Homo sapiens, UniProt P00750); test: Inhibition of tPA (unknown origin) incubated for 30 mins measured for 7 mins by morrison plot analysis
Coagulation factor X = Coagulation factor X (Homo sapiens, UniProt P00742); test: Inhibition of factor 10a (unknown origin) using Ac-QRSRpNA as substrate incubated for 30 mins measured for 7 mins by morrison plot analysis
Prothrombin = Prothrombin (Homo sapiens, UniProt P00734); test: Inhibition of thrombin (unknown origin) using Ac-ATPRpNA as substrate incubated for 30 mins measured for 7 mins by morrison plot analysis
[2] = target: Urokinase-type plasminogen activator (Homo sapiens, UniProt P00749); test: Inhibition of uPA (unknown origin) incubated for 30 mins measured for 7 mins by morrison plot analysis
Homo sapiens = species: Homo sapiens; test: Selectivity ratio of Ki for factor 10a (unknown origin) to Ki for factor 12a (unknown origin)

Sequence of Coagulation factor IX (P00740 47-191 limits assumed): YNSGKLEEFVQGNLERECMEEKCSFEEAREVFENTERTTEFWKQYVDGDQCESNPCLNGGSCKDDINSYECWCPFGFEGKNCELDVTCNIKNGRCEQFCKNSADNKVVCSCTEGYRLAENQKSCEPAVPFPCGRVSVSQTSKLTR
Sequence of Coagulation factor IX (P00740 227-461 limits assumed): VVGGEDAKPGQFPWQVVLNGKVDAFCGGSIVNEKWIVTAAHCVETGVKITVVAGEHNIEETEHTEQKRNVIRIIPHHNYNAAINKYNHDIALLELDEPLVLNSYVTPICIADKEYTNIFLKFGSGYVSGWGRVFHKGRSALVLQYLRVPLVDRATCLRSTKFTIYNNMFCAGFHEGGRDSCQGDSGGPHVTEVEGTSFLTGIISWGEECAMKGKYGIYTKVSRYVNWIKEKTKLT
Sequence of Plasma kallikrein (P03952 20-390 limits assumed): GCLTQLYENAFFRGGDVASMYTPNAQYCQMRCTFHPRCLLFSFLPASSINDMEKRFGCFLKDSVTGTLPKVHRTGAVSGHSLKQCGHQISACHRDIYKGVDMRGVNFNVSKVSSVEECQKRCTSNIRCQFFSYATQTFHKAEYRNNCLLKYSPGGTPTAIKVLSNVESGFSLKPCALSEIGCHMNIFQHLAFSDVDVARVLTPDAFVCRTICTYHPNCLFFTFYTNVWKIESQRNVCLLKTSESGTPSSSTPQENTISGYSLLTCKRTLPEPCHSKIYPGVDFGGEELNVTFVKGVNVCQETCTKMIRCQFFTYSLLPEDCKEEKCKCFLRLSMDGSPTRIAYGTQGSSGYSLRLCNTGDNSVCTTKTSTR
Sequence of Plasma kallikrein (P03952 391-638 limits assumed): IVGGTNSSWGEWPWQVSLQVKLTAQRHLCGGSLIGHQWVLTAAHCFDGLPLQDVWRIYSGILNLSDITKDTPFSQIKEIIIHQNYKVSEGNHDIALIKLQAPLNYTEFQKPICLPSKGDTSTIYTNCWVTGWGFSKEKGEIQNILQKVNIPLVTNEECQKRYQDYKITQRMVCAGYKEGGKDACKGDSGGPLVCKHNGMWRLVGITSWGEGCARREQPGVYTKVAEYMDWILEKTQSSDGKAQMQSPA
Sequence of Coagulation factor X (P00742 41-179 limits assumed): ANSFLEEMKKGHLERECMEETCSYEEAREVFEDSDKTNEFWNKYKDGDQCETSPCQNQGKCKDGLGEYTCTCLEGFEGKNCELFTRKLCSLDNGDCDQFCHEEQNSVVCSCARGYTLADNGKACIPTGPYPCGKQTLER
Sequence of Coagulation factor X (P00742 235-488 limits assumed): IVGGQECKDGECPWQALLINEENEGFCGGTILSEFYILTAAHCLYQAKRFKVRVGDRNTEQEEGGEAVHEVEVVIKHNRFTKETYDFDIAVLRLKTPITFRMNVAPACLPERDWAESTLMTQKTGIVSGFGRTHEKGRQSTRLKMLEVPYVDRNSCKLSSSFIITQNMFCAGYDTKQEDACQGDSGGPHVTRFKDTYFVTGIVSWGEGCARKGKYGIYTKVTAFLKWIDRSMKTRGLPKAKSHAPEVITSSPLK
Sequence of Plasminogen (P00747 97-580 limits assumed): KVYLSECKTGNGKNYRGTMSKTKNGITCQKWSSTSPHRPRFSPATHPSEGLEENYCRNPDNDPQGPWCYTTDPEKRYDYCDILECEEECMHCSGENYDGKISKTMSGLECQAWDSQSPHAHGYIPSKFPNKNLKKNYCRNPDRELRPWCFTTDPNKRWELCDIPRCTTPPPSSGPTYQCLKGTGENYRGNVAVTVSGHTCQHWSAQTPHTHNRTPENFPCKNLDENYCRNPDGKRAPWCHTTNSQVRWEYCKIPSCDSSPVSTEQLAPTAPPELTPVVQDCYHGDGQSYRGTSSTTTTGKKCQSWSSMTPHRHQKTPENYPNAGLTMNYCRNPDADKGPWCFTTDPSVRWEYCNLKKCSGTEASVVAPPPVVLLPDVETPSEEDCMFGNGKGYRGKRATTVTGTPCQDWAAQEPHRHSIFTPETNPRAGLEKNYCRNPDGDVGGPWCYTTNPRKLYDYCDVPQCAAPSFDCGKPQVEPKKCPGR
Sequence of Plasminogen (P00747 581-810 limits assumed): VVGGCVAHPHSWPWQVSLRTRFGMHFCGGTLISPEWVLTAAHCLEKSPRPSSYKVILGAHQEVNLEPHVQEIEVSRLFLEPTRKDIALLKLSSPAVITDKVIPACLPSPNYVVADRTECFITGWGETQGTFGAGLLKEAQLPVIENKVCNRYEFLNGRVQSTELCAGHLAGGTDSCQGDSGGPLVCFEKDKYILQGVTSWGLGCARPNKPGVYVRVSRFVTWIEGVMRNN
Sequence of Coagulation factor XI (P03951 19-387 limits assumed): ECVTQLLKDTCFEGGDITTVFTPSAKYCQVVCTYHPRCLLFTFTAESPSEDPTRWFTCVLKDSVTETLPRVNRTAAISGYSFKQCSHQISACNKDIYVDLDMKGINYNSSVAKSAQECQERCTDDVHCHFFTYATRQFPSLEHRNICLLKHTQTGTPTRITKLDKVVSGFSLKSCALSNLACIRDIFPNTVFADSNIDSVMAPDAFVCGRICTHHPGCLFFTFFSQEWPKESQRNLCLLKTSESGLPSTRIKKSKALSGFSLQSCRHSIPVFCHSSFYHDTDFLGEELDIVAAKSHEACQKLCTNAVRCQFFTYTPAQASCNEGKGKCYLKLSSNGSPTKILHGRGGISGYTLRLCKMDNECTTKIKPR
Sequence of Coagulation factor XI (P03951 388-625 limits assumed): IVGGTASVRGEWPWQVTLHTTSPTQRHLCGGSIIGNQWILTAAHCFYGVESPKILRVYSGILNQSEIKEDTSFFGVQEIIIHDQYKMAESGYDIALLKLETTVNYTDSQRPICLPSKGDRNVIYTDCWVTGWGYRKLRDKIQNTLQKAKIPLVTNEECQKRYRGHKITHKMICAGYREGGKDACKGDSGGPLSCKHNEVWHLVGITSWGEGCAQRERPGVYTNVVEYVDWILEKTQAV
Sequence of Tissue-type plasminogen activator (P00750 whole entry): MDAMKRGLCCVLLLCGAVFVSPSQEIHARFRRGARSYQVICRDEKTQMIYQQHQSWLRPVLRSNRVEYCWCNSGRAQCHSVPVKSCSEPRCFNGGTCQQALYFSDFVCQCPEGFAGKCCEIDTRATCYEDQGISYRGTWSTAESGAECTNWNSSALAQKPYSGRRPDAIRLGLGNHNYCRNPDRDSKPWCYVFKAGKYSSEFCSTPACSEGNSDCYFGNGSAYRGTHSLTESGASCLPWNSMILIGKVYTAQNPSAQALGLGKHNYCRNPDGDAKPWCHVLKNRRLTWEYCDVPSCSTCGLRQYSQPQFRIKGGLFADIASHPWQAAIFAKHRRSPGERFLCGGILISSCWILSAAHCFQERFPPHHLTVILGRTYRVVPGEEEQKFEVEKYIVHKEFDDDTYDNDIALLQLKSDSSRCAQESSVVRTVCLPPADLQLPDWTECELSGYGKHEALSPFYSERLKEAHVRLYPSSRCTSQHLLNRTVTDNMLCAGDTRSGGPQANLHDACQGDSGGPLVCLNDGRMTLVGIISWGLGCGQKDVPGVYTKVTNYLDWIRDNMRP

Ki (Coagulation factor XII) [µM]	Ki (Coagulation factor IX) [µM]	Ki (Coagulation factor XI) [µM]	Ki (Plasminogen) [µM]	Ki (Trypsin) [µM]	Ki (Plasma kallikrein) [µM]	Ki [1] [µM]	Ki (Coagulation factor X) [µM]	Ki (Prothrombin) [µM]	Ki [2] [µM]	Ratio Ki (Homo sapiens)	SMILES
0.51	> 10	> 10	1.5	2.24	> 10	> 10	–	–	–	–	CC[C@H](C)[C@@H]1NC(=O)[C@@H]2CSSC[C@H](NC(=O)[C@H](CCC(N)=O)NC(=O)CNC(=O)CN)C(=O)N[C@@H](Cc3ccccc3)C(=O)N[C@@H](CCCNC(=N)N)C(=O)N[C@@H]([C@@H](C)CC)C(=O)N[C@@H](Cc3c[nH]c4ccccc34)C(=O)N[C@@H](CCCCN)C(=O)N[C@@H](CCCCN)C(=O)N[C@H]3CSSC[C@H](NC1=O)C(=O)N[C@@H](CCCNC(=N)N)C(=O)NCC(=O)N[C@@H](CC(N)=O)C(=O)NCC(=O)N[C@@H](Cc1ccc(O)cc1)C(=O)N[C@H](C(=O)NCC(=O)N[C@@H](CO)C(=O)NCC(=O)N[C@@H](CO)C(=O)N[C@@H](CC(=O)O)C(=O)O)CSSC[C@H](NC(=O)[C@H](CC(=O)O)NC(=O)[C@H](CO)NC(=O)[C@H](CC(=O)O)NC(=O)[C@H](CCCNC(=N)N)NC(=O)[C@H](CCCNC(=N)N)NC3=O)C(=O)N1CCC[C@H]1C(=O)NCC(=O)N[C@@H](C)C(=O)N2
0.11	> 10	> 10	0.27	0.0069	> 10	> 10	–	–	–	–	CC[C@H](C)[C@@H]1NC(=O)[C@@H]2CSSC[C@H](NC(=O)[C@H](CCC(N)=O)NC(=O)CNC(=O)CN)C(=O)N[C@@H](Cc3ccccc3)C(=O)N[C@@H](CCCNC(=N)N)C(=O)N[C@@H]([C@@H](C)CC)C(=O)N[C@@H](CC(C)C)C(=O)N[C@@H](CCCCN)C(=O)N[C@@H](CCCCN)C(=O)N[C@H]3CSSC[C@H](NC1=O)C(=O)N[C@@H](CCCNC(=N)N)C(=O)NCC(=O)N[C@@H](CC(N)=O)C(=O)NCC(=O)N[C@@H](Cc1ccc(O)cc1)C(=O)N[C@H](C(=O)NCC(=O)N[C@@H](CO)C(=O)NCC(=O)N[C@@H](CO)C(=O)N[C@@H](CC(=O)O)C(=O)O)CSSC[C@H](NC(=O)[C@H](CC(=O)O)NC(=O)[C@H](CO)NC(=O)[C@H](CC(=O)O)NC(=O)[C@H](CCCNC(=N)N)NC(=O)[C@H](CCCNC(=N)N)NC3=O)C(=O)N1CCC[C@H]1C(=O)NCC(=O)N[C@@H](C)C(=O)N2
–	–	–	–	–	–	–	96	> 10	> 10	–	CC[C@H](C)[C@@H]1NC(=O)[C@H](CCCNC(=N)N)NC(=O)[C@H](CO)NC(=O)[C@H](NC(=O)[C@H](CCC(N)=O)NC(=O)CNC(=O)CN)CSSC[C@H]2NC(=O)[C@H](C)NC(=O)CNC(=O)[C@@H]3CCCN3C(=O)[C@@H]3CSSC[C@H](C(=O)NCC(=O)N[C@@H](CO)C(=O)NCC(=O)N[C@@H](CO)C(=O)N[C@@H](CC(=O)O)C(=O)O)NC(=O)[C@H](Cc4ccc(O)cc4)NC(=O)CNC(=O)[C@H](CC(N)=O)NC(=O)CNC(=O)[C@H](CCCNC(=N)N)NC(=O)[C@H](CSSC[C@H](NC(=O)[C@H](CCCCN)NC(=O)[C@H](CCCCN)NC(=O)[C@H](CC(C)C)NC1=O)C(=O)N[C@@H](CCCNC(=N)N)C(=O)N[C@@H](CCCNC(=N)N)C(=O)N[C@@H](CC(=O)O)C(=O)N[C@@H](CO)C(=O)N[C@@H](CC(=O)O)C(=O)N3)NC(=O)[C@H]([C@@H](C)CC)NC2=O
2.16	> 10	> 10	> 10	> 10	> 10	> 10	–	–	–	–	CC[C@H](C)[C@@H]1NC(=O)[C@@H]2CSSC[C@H](NC(=O)[C@H](CCC(N)=O)NC(=O)CNC(=O)CN)C(=O)N[C@@H](CO)C(=O)N[C@@H](CCCNC(=N)N)C(=O)N[C@@H]([C@@H](C)CC)C(=O)N[C@@H](CC(C)C)C(=O)N[C@@H](CCCCN)C(=O)N[C@@H](CCCCN)C(=O)N[C@H]3CSSC[C@H](NC1=O)C(=O)N[C@@H](CCCNC(=N)N)C(=O)NCC(=O)N[C@@H](CC(N)=O)C(=O)NCC(=O)N[C@@H](Cc1ccc(O)cc1)C(=O)N[C@H](C(=O)NCC(=O)N[C@@H](CO)C(=O)NCC(=O)N[C@@H](CO)C(=O)N[C@@H](CC(=O)O)C(=O)O)CSSC[C@H](NC(=O)[C@H](CC(=O)O)NC(=O)[C@H](CO)NC(=O)[C@H](CC(=O)O)NC(=O)[C@H](CCCNC(=N)N)NC(=O)[C@H](CCCNC(=N)N)NC3=O)C(=O)N1CCC[C@H]1C(=O)NCC(=O)N[C@@H](C)C(=O)N2
–	–	–	–	–	–	–	> 100	> 10	> 10	–	CC[C@H](C)[C@@H]1NC(=O)[C@H](CCCNC(=N)N)NC(=O)[C@H](Cc2ccccc2)NC(=O)[C@H](NC(=O)[C@H](CCC(N)=O)NC(=O)CNC(=O)CN)CSSC[C@H]2NC(=O)[C@H](C)NC(=O)CNC(=O)[C@@H]3CCCN3C(=O)[C@@H]3CSSC[C@H](C(=O)NCC(=O)N[C@@H](CO)C(=O)NCC(=O)N[C@@H](CO)C(=O)N[C@@H](CC(=O)O)C(=O)O)NC(=O)[C@H](Cc4ccc(O)cc4)NC(=O)CNC(=O)[C@H](CC(N)=O)NC(=O)CNC(=O)[C@H](CCCNC(=N)N)NC(=O)[C@H](CSSC[C@H](NC(=O)[C@H](CCCCN)NC(=O)[C@H](CCCCN)NC(=O)[C@H](Cc4c[nH]c5ccccc45)NC1=O)C(=O)N[C@@H](CCCNC(=N)N)C(=O)N[C@@H](CCCNC(=N)N)C(=O)N[C@@H](CC(=O)O)C(=O)N[C@@H](CO)C(=O)N[C@@H](CC(=O)O)C(=O)N3)NC(=O)[C@H]([C@@H](C)CC)NC2=O
0.75	> 10	> 10	0.028	0.00016	> 10	> 10	–	–	–	–	CC[C@H](C)[C@@H]1NC(=O)[C@@H]2CSSC[C@H](NC(=O)[C@@H](NC(=O)CNC(=O)CN)C(C)C)C(=O)N3CCC[C@H]3C(=O)N[C@@H](CCCCN)C(=O)N[C@@H]([C@@H](C)CC)C(=O)N[C@@H](CC(C)C)C(=O)N[C@@H](CCCCN)C(=O)N[C@@H](CCCCN)C(=O)N[C@H]3CSSC[C@H](NC1=O)C(=O)N[C@@H](CCCNC(=N)N)C(=O)NCC(=O)N[C@@H](CC(N)=O)C(=O)NCC(=O)N[C@@H](Cc1ccc(O)cc1)C(=O)N[C@H](C(=O)NCC(=O)N[C@@H](CO)C(=O)NCC(=O)N[C@@H](CO)C(=O)N[C@@H](CC(=O)O)C(=O)O)CSSC[C@H](NC(=O)[C@H](CC(=O)O)NC(=O)[C@H](CO)NC(=O)[C@H](CC(=O)O)NC(=O)[C@H](CCCNC(=N)N)NC(=O)[C@H](CCCNC(=N)N)NC3=O)C(=O)N1CCC[C@H]1C(=O)NCC(=O)N[C@@H](C)C(=O)N2
0.49	> 50	> 100	4.54	6.24	> 50	> 50	–	–	–	–	CC[C@H](C)[C@@H]1NC(=O)[C@@H]2CSSC[C@H](NC(=O)[C@H](CCC(N)=O)NC(=O)CNC(=O)[C@@H](N)CCCCN)C(=O)N[C@@H](Cc3ccccc3)C(=O)N[C@@H](CCCNC(=N)N)C(=O)N[C@@H]([C@@H](C)CC)C(=O)N[C@@H](Cc3c[nH]c4ccccc34)C(=O)N[C@@H](CCCCN)C(=O)N[C@@H](CCCCN)C(=O)N[C@H]3CSSC[C@H](NC1=O)C(=O)N[C@@H](CCCNC(=N)N)C(=O)NCC(=O)N[C@@H](CC(N)=O)C(=O)NCC(=O)N[C@@H](Cc1ccc(O)cc1)C(=O)N[C@H](C(=O)NCC(=O)N[C@@H](CO)C(=O)NCC(=O)N[C@@H](CO)C(=O)N[C@@H](CC(=O)O)C(=O)O)CSSC[C@H](NC(=O)[C@H](CC(=O)O)NC(=O)[C@H](CO)NC(=O)[C@H](CC(=O)O)NC(=O)[C@H](CCCNC(=N)N)NC(=O)[C@H](CCCNC(=N)N)NC3=O)C(=O)N1CCC[C@H]1C(=O)NCC(=O)N[C@@H](C)C(=O)N2
–	–	–	–	–	–	–	> 10	> 10	> 10	–	CC[C@H](C)[C@@H]1NC(=O)[C@H](CCCCN)NC(=O)[C@@H]2CCCN2C(=O)[C@H](NC(=O)[C@@H](NC(=O)CNC(=O)CN)C(C)C)CSSC[C@H]2NC(=O)[C@H](C)NC(=O)CNC(=O)[C@@H]3CCCN3C(=O)[C@@H]3CSSC[C@H](C(=O)NCC(=O)N[C@@H](CO)C(=O)NCC(=O)N[C@@H](CO)C(=O)N[C@@H](CC(=O)O)C(=O)O)NC(=O)[C@H](Cc4ccc(O)cc4)NC(=O)CNC(=O)[C@H](CC(N)=O)NC(=O)CNC(=O)[C@H](CCCNC(=N)N)NC(=O)[C@H](CSSC[C@H](NC(=O)[C@H](CCCCN)NC(=O)[C@H](CCCCN)NC(=O)[C@H](CC(C)C)NC1=O)C(=O)N[C@@H](CCCNC(=N)N)C(=O)N[C@@H](CCCNC(=N)N)C(=O)N[C@@H](CC(=O)O)C(=O)N[C@@H](CO)C(=O)N[C@@H](CC(=O)O)C(=O)N3)NC(=O)[C@H]([C@@H](C)CC)NC2=O
0.18	–	–	–	–	–	–	0.57	–	–	3	CC(=O)N[C@@H](CCC(N)=O)C(=O)N[C@@H](CCCNC(=N)N)C(=O)N[C@@H](Cc1ccccc1)C(=O)N[C@H](C=O)CCCNC(=N)N (Ac-QRFR-aldehyde)
